Test results published in publication PMC9388736, “Unexpected kinetically controlled organoselenium-based isomaleimide: X-ray structure, hirshfeld surface analysis, 3D energy framework approach, and density functional theory calculation” (Frontiers in Chemistry, 2022).

Key:
[1] = in vitro; format: cell-based, Murine; conditions: mouse
Protocol: (§1) The antiproliferative activities of OSe compounds 2, 3, and 4 were assessed against two oligodendrocyte cell lines, namely, 158 N and 158 JP, by the M.T.T. assay using 7-ketocholesterol as reference control (Supporting info, Supplementary Table S1) ([Vejux et al., 2005]; [Nury et al., 2014]). The redox profile of the compounds was evaluated using the H2-DCFDA assay, and their antiapoptotic potential was also assessed by flow cytometry ([Wilhelm et al., 2009]; [Karlsson et al., 2010]; [Shaaban et al., 2018]). Murine oligodendrocytes ([…] and 158JP) were seeded at 240,000 cells per 24-well plates and were grown using the Dulbecco's Modified Eagle Medium supplemented with penicillin antibiotics (1% v/v, streptomycin) and fetal bovine serum (5% v/v) and kept at 37 °C in atmosphere containing 5% CO2. The concentration of 7kc and vitamin E, and the time of treatment were chosen based on data obtained on 7kc treated […] cells. Organoselenium compounds were prepared in DMSO and then diluted with DMEM up to 1 mM. The MTT assay was carried out on […] and 158JP cells after one day of incubation with 7kc (50μM)/different concentrations (0, 1, 10, 20, 50 and 100 μM) of the organic selenides. In live cells, the MTT is reduced to formazan by the succinate dehydrogenase mitochondrial enzyme. The microplate reader Tecan Sunrise (Tecan, Lyon, France) was used for the reading of the plates at 570 nm. The IC50 values and the maximum concentrations without toxicity were estimated for each of the compounds from the respective dose-response curves.

[2] = tested on: 158N cells; assay: H2-DCFDA assay of ROS levels by flow cytometry; format: cell-based, Murine; conditions: Mus musculus, ROS level, mean ± SD, * P < 0.05 vs DMSO; for activity at 50 µM: compound at 50 µM, read-out: H2-DCFDA assay (% of control), C3 (50 µM); for activity at 10 µM: compound at 10 µM, read-out: H2-DCFDA assay (% of control), C1 (10 µM); for activity at 20 µM: compound at 20 µM, read-out: H2-DCFDA assay (% of control), C2 (20 µM)
Protocol: The antiproliferative activities of OSe compounds 2, 3, and 4 were assessed against two oligodendrocyte cell lines, namely, 158 N and 158 JP, by the M.T.T. assay using 7-ketocholesterol as reference control (Supporting info, Supplementary Table S1) ([Vejux et al., 2005]; [Nury et al., 2014]). The redox profile of the compounds was evaluated using the H2-DCFDA assay, and their antiapoptotic potential was also assessed by flow cytometry ([Wilhelm et al., 2009]; [Karlsson et al., 2010]; [Shaaban et al., 2018]). ROS overproduction and O2^•− and were detected with H2-DCFDA assay. Cultured cells were treated with trypsin re-suspended in PBS (10^6 cells/mL) and kept in the dark for half hour at 37 °C with H2-DCFDA at 10 μM and cells were analyzed by flow cytometry. The green fluorescence of 2’,7’- dichlorofluorescein resulting from the oxidation of H2-DCFDA was analyzed by flow cytometry and collected through a 520/10-nm band pass filter. Flomax (Partec) or FlowJo (Tree Star Inc.) software were used for the data analysis.

[3] = tested on: 158JP cells; assay: in vitro; format: cell-based, Murine; conditions: for IC50: mouse, 1 day
Protocol: as §1

[4] = tested on: 158N cells; assay: in vitro; format: cell-based, Murine; conditions: for IC50: mouse, 1 day
Protocol: as §1

[5] = tested on: 158N cells; assay: Antiapoptotic effect: Sub-G1 peak by flow cytometry, PI staining, 7kc as apoptosis stimulator; format: cell-based, Murine; conditions: 158N cells stained with P.I., 7kc (50 μM) 24 hours, compound at 50, 10, 5 and 1 μM
Protocol: Furthermore, the antiapoptotic activities of compounds 2, 3, and 4 were also evaluated by flow cytometry in 158N cells stained with P.I. using 7Kc as apoptosis stimulator and the positive reference (Supporting info, Supplementary Figure S1). […] The N-maleanilic acid 3 amphiphilic characters favor its crossing through the cell membrane and, therefore, its better activity.
The analysis of the cell cycle can reveal a Sub-G1 peak, which is representative of apoptotic cells. Cell cycle analysis was detected on 158N cells stained with Propidium Iodide (PI). Flow cytometric analyses were measured on a Galaxy flow cytometer. Cells were prepared by re-suspension in cold ethanol (80%, −20 °C) for 2 hrs.Cells were then washed withphosphate buffer, and re-suspended in phosphate buffer (300 μL) containing PI (80 μg/mL) and RNase (200 μg/mL) and kept for 1 h at 37°C.PBS 2 mL was then added, and Fluorescence of propidium iodide was recorded using a 590 ± 10 nm band filter. The percentage of cells in different cell cycle phase was manually estimated.
Figure S1. Anti-apoptotic effect of the organoselenium derivative 3 on oligodendrocytes. The anti-apoptotic effect was measured by cytometry using propidium iodide. […]

Question: Which results are given for `CC(C)CCC[C@@H](C)[C@H]1CC[C@H]2[C@@H]3C(=O)C=C4C[C@@H](O)CC[C@]4(C)[C@H]3CC[C@]12C` [7kc, 7-ketocholesterol, reference compound]?
Answer: IC50 at 1 day ([1]; Cytotoxicity assay IC50, 158JP): 74 µM; IC50 at 1 day ([1]; Cytotoxicity assay IC50, 158N): 37 µM; activity at 50 µM [2]: 48 ± 2%

Question: With `Nc1ccc([Se]Cc2ccc(Br)cc2)cc1` [Compound 2, 4-((4-bromobenzyl)selanyl)aniline] as the compound, how does the IC50 at 1 day ([1]; Cytotoxicity assay IC50, 158JP) read?
Answer: The IC50 at 1 day was at least 100 µM.

Question: What about the IC50 at 1 day ([1]; Cytotoxicity assay IC50, 158N) of the same compound?
Answer: The IC50 at 1 day was at least 100 µM.

Question: And the IC50 [3]?
Answer: The IC50 was over 100 µM.

Question: And the IC50 [4]?
Answer: Its IC50 is over 100 µM.

Question: What about the activity at 10 µM [2] of the same compound?
Answer: Its activity at 10 µM is 36 ± 8%.

Question: What about the activity at 20 µM [2] of the same compound?
Answer: The activity at 20 µM was 41 ± 2%.

Question: What about the activity at 50 µM [2] of the same compound?
Answer: Its activity at 50 µM is 48 ± 2%.

Question: What about the melting point of the same compound?
Answer: The melting point was 156 to 158 °C.

Question: What does the source list for `O=C(O)C=CC(=O)Nc1ccc([Se]Cc2ccc(Br)cc2)cc1` [Compound 3, 4-((4-((4-bromobenzyl)selanyl)phenyl)amino)-4-oxobut-2-enoic acid]?
Answer: IC50 at 1 day ([1]; Cytotoxicity assay IC50, 158JP): 50 µM; IC50 at 1 day ([1]; Cytotoxicity assay IC50, 158N): 29 µM; cytotoxicity (in words) [3]: moderate-low cytotoxicity; cytotoxicity (in words) [4]: moderate-low cytotoxicity; activity at 10 µM [2]: 42 ± 10%; activity at 20 µM [2]: 36 ± 20%; activity at 50 µM [2]: 31 ± 20%; formation of SubG1 peak (antiapoptotic activity, in words) [5]: lowered, in a concentration-dependent manner, the formation of SubG1 peak; melting point: 215 to 217 °C

Question: For `O=C1C=CC(=Nc2ccc([Se]Cc3ccc(Br)cc3)cc2)O1` [Compound 4], which IC50 at 1 day ([1]; Cytotoxicity assay IC50, 158JP) is on record?
Answer: Its IC50 at 1 day is at least 100 µM.

Question: And the IC50 at 1 day ([1]; Cytotoxicity assay IC50, 158N)?
Answer: The IC50 at 1 day was at least 100 µM.

Question: And the IC50 [3]?
Answer: Its IC50 is over 100 µM.

Question: What about the IC50 [4] of the same compound?
Answer: The IC50 was over 100 µM.

Question: And the activity at 10 µM [2]?
Answer: Its activity at 10 µM is 7 ± 4%.

Question: And the activity at 20 µM [2]?
Answer: The activity at 20 µM was 8 ± 4%.

Question: What about the activity at 50 µM [2] of the same compound?
Answer: The activity at 50 µM was 11 ± 4%.

Question: And the melting point?
Answer: The melting point was 185 to 187 °C.
